Test results reported in patent US12162850B2, “Formulations” (Betagenon AB, priority 2019, dated 2024).

Columns and labels:
[1] = Particle size analysis of dry-milled products (laser diffraction, Shimadzu SALD-2300); format: physicochemical
Method: Milling was performed for Examples 1a to 1c using an air jet mill (Equipment code: CP-AJM-01; Promas engineers) with the following parameters: Micronisation was repeated in all examples by performing the air jet milling for a second time using the same parameters. This allowed the particle size D90 to be reduced to less than 10 μm. [table] Four drops of Tween 20 were added to 25 mL of water and the mixture was sonicated for 3 minutes to form the dispersant solution. 0.05 g of milled material was transferred into a 250 mL glass beaker. 25 mL of the dispersant solution (Tween 20/water mixture) was added to the beaker with continuous swirling for 2 to 3 minutes. The suspension was transferred into the measuring unit and the particle size distribution measurements were conducted in triplicate.

[2] = Single dose oral pharmacokinetic studies in rabbits; format: in vivo, male New Zealand White rabbits; settings: for AUCextrap / AUC(0-inf) / AUC(0-t) / Cmax / MRT last / Tmax / half-life: 90 mg/kg b.w. oral single dose
Method: The studies detailed below (and referred to as Examples 2 to 8) were conducted to provide comparative single dose oral pharmacokinetics data for Compound 1, as well as sodium and potassium salts of that compound, using non-coated and enteric-coated capsules in male New Zealand White rabbits.
Compound 1 was made using the process described in WO 2011/004162 and milled as described for Example 1c. The non-coated or enteric coated gelatin capsules were individually filled with 180 mg of dry-milled Compound 1 together with accompanying excipients as indicated. Both capsule types were filled with Compound 1 together with 1.8 mg of sodium docusate, 0.18 mg of PVP K30 and 9 mg of mannitol.
Similarly, Compound 2, non-coated or enteric coated gelatin capsules were individually filled with 180 mg of dry-milled Compound 2 (as obtained in Example 1f) together with 1.8 mg of sodium docusate, 0.18 mg of PVP K30 and 9 mg of mannitol.
For Compound 3, non-coated or enteric coated gelatin capsules were individually filled with 90 mg of dry-milled Compound 3 (as obtained in Example 1i) together with 0.90 mg of sodium docusate, 0.09 mg of PVP K30 and 4.50 mg of mannitol.
40 mL of the 2% w/v methyl cellulose solution was added to a 250 mL conical flask together with 10 g of 2 mm glass beads, and vigorously stirred. Compound 1 (720 mg) was slowly added to the solution and the mixture was with continuously stirred for 1 h. The homogenate was transferred to separate flask and its pH recorded. The suspension formulation was prepared before administration to the animals.
Adult healthy male New Zealand white rabbits aged approximately 2 to 3 months old were used for experimentation after 7 days of acclimatization.
To dose the filled capsules, a soft plastic dosing tube was used. The filled capsule was inserted into the dosing tube so that the short end of the capsule protrudes slightly from the tip of the tube. The tip of the capsule was dipped in mineral oil to aid swallowing.
To dose the suspension, an infant feeding tube was used. The feeding tube was inserted through the mouth of the rabbit to the oesophagus and the stomach, and ascertained that it has not been placed in the trachea before dosing to the animals. The suspension of the Compound 1 was administered through the feeding tube. After the administration of the suspension, drinking water of approximately 2.0-2.5 mL was administered to flush out the contents in the feeding tube.
The animals were restrained in a rabbit restrainer and blood samples (400-500 μL/time point) were collected via the central ear artery at 0.16, 0.25, 0.50, 1.0, 2.0, 4.0, 6.0, 8.0, 24.0, 48.0 and 72 hours post-dosing. Collected blood specimens were centrifuged at 4000 or 6000 rpm, 4° C. for 10 minutes and plasma samples were separated and stored at −80° C. until analysis.
Concentrations of the analyte of Compound 1 in New Zealand white rabbits was determined using an API 3200 Q-trap LC-MS/MS system.
Chromatographic separation was achieved on Zorbax C18, 50×4.6 mm, 5 μm column with methanol-0.1% formic acid as mobile phase with gradient elution. The flow rate was set at 1.0 mL min^−1. Detection was accomplished by a triple-quadrupole tandem mass spectrometer in multiple-reaction monitoring (MRM) scanning via electrospray ionization source, applied in the positive mode. The optimised mass transition ion-pairs for quantitation were m/z 379.999→125.000 for the compound 1 and m/z 376.165→165.00 for the ISD (Haloperidol). Calibration plots were linear over the range of 11.062 to 20594.820 ng/mL.
The data of plasma concentration to respective time points for the analyte Compound 1 were used for the pharmacokinetic analysis. Pharmacokinetic analysis was performed using non-compartmental analysis (NCA) module of Phoenix WinNonlin 6.3 software to determine the following pharmacokinetic parameters: • Cmax • Tmax • AUC0-t • AUC0-∞ • T1/2 • MRT […]

[3] = after 1st milling (air jet mill)
[4] = after 2nd milling (air jet mill)
[5] = male, New Zealand White, rabbit, plasma, po, 90 mg/kg, enteric coated capsule, 90 mg/kg b.w. oral
[6] = male, New Zealand White, rabbit, plasma, po, 90 mg/kg, non-coated capsule, 90 mg/kg b.w. oral
[7] = male, New Zealand White, rabbit, plasma, po, 90 mg/kg, standard suspension, 90 mg/kg b.w. oral
[8] = male, New Zealand White, rabbit, plasma, po, 90 mg/kg, enteric coated capsule, rabbit plasma (Examples 5, 6, 7)
[9] = male, New Zealand White, rabbit, plasma, po, 90 mg/kg, non-coated capsule, rabbit plasma (Examples 2, 3, 4)
[10] = male, New Zealand White, rabbit, plasma, po, 90 mg/kg, standard suspension (2% w/v methylcellulose), rabbit plasma (Example 8)

- Particle size distribution D10 [1, 3]: 1.8 μm
- Particle size distribution D50 [1, 3]: 5.0 μm
- Particle size distribution D90 [1, 3]: 11.4 μm
- Particle size distribution D100 [1, 3]: 33.7 μm
- Particle size distribution D10 [1, 4]: 1.2 μm
- Particle size distribution D50 [1, 4]: 3.7 μm
- Particle size distribution D90 [1, 4]: 8.3 μm
- Particle size distribution D100 [1, 4]: 21.4 μm
- Particle size distribution D10 ([1]; before milling): 13.5 μm
- Particle size distribution D50 ([1]; before milling): 28.0 μm
- Particle size distribution D90 ([1]; before milling): 55.2 μm
- Particle size distribution D100 ([1]; before milling): 187.0 μm
- Plasma concentration, mean ([2]; 0.16 h, non-coated capsule, 90 mg/kg b.w. oral, rabbit): 0.000 ng/mL
- Plasma concentration, mean ([2]; 0.25 h, non-coated capsule, 90 mg/kg b.w. oral, rabbit): 0.000 ng/mL
- Plasma concentration, mean ([2]; 0.50 h, non-coated capsule, 90 mg/kg b.w. oral, rabbit): 50.474 ng/mL
- Plasma concentration, mean ([2]; 1.00 h, enteric coated capsule, 90 mg/kg b.w. oral, rabbit): 0.000 ng/mL
- Plasma concentration, mean ([2]; 1.00 h, non-coated capsule, 90 mg/kg b.w. oral, rabbit): 386.171 ng/mL
- Plasma concentration, mean ([2]; 2.00 h, enteric coated capsule, 90 mg/kg b.w. oral, rabbit): 5.857 ng/mL
- Plasma concentration, mean ([2]; 2.00 h, non-coated capsule, 90 mg/kg b.w. oral, rabbit): 1530.898 ng/mL
- Plasma concentration, mean ([2]; 4.00 h, enteric coated capsule, 90 mg/kg b.w. oral, rabbit): 206.003 ng/mL
- Plasma concentration, mean ([2]; 6.00 h, enteric coated capsule, 90 mg/kg b.w. oral, rabbit): 307.917 ng/mL
- Plasma concentration, mean ([2]; 6.00 h, non-coated capsule, 90 mg/kg b.w. oral, rabbit): 25336.370 ng/mL
- Plasma concentration, mean ([2]; 8.00 h, enteric coated capsule, 90 mg/kg b.w. oral, rabbit): 1505.092 ng/mL
- Plasma concentration, mean ([2]; 24.00 h, enteric coated capsule, 90 mg/kg b.w. oral, rabbit): 45705.076 ng/mL
- Plasma concentration, mean ([2]; 72.00 h, non-coated capsule, 90 mg/kg b.w. oral, rabbit): 35657.688 ng/mL
- AUCextrap ([2]; enteric coated capsule, rabbit plasma (Examples 5, 6, 7)): 82.44 ± 9.84%
- concentration at 0 h [2, 5]: 0 ng/mL
- concentration at 0 h [2, 6]: 0 ng/mL
- concentration at 0 h [2, 7]: 0 ng/mL
- concentration at 0.16 h ([2]; male, New Zealand White, rabbit, plasma, po, 90 mg/kg, 0.16 h, enteric coated capsule, 90 mg/kg b.w. oral): 0 ng/mL
- concentration at 0.16 h ([2]; male, New Zealand White, rabbit, plasma, po, 90 mg/kg, 0.16 h, standard suspension, 90 mg/kg b.w. oral): 1210 ng/mL
- concentration at 0.25 h ([2]; male, New Zealand White, rabbit, plasma, po, 90 mg/kg, 0.25 h, enteric coated capsule, 90 mg/kg b.w. oral): 0 ng/mL
- concentration at 0.25 h ([2]; male, New Zealand White, rabbit, plasma, po, 90 mg/kg, 0.25 h, standard suspension, 90 mg/kg b.w. oral): 4420 ng/mL
- concentration at 0.5 h ([2]; male, New Zealand White, rabbit, plasma, po, 90 mg/kg, 0.50 h, enteric coated capsule, 90 mg/kg b.w. oral): 0 ng/mL
- concentration at 0.5 h ([2]; male, New Zealand White, rabbit, plasma, po, 90 mg/kg, 0.50 h, standard suspension, 90 mg/kg b.w. oral): 7250 ng/mL
- concentration at 1 h ([2]; male, New Zealand White, rabbit, plasma, po, 90 mg/kg, 1.00 h, standard suspension, 90 mg/kg b.w. oral): 9390 ng/mL
- concentration at 2 h ([2]; male, New Zealand White, rabbit, plasma, po, 90 mg/kg, 2.00 h, standard suspension, 90 mg/kg b.w. oral): 10100 ng/mL
- concentration at 4 h ([2]; male, New Zealand White, rabbit, plasma, po, 90 mg/kg, 4.00 h, non-coated capsule, 90 mg/kg b.w. oral): 13400 ng/mL
- concentration at 4 h ([2]; male, New Zealand White, rabbit, plasma, po, 90 mg/kg, 4.00 h, standard suspension, 90 mg/kg b.w. oral): 11600 ng/mL
- concentration at 6 h ([2]; male, New Zealand White, rabbit, plasma, po, 90 mg/kg, 6.00 h, standard suspension, 90 mg/kg b.w. oral): 139000 ng/mL
- concentration at 8 h ([2]; male, New Zealand White, rabbit, plasma, po, 90 mg/kg, 8.00 h, non-coated capsule, 90 mg/kg b.w. oral): 39200 ng/mL
- concentration at 8 h ([2]; male, New Zealand White, rabbit, plasma, po, 90 mg/kg, 8.00 h, standard suspension, 90 mg/kg b.w. oral): 28700 ng/mL
- concentration at 24 h ([2]; male, New Zealand White, rabbit, plasma, po, 90 mg/kg, 24.00 h, non-coated capsule, 90 mg/kg b.w. oral): 63600 ng/mL
- concentration at 24 h ([2]; male, New Zealand White, rabbit, plasma, po, 90 mg/kg, 24.00 h, standard suspension, 90 mg/kg b.w. oral): 18400 ng/mL
- concentration at 48 h [2, 5]: 59700 ng/mL
- concentration at 48 h [2, 6]: 54800 ng/mL
- concentration at 48 h [2, 7]: 8830 ng/mL
- concentration at 72 h ([2]; male, New Zealand White, rabbit, plasma, po, 90 mg/kg, 72.00 h, enteric coated capsule, 90 mg/kg b.w. oral): 52300 ng/mL
- concentration at 72 h ([2]; male, New Zealand White, rabbit, plasma, po, 90 mg/kg, 72.00 h, standard suspension, 90 mg/kg b.w. oral): 3030 ng/mL
- AUC(0-inf) [2, 8]: 18600 ± 12800 µg·h/mL
- AUC(0-t) [2, 8]: 2990 ± 666 µg·h/mL
- Cmax [2, 8]: 60800 ± 15700 ng/mL
- MRT last [2, 8]: 45.2 ± 2.54 h
- Tmax [2, 8]: 40 ± 13.9 h
- half-life [2, 8]: 252 ± 133 h
- AUC(0-inf) [2, 9]: 7390 ± 3870 µg·h/mL
- AUC(0-t) [2, 9]: 3450 ± 405 µg·h/mL
- Cmax [2, 9]: 63700 ± 3790 ng/mL
- MRT last [2, 9]: 36.9 ± 2.56 h
- Tmax [2, 9]: 32 ± 13.9 h
- half-life [2, 9]: 68.2 ± 43 h
- AUC(0-inf) [2, 10]: 1120 µg·h/mL
- AUC(0-t) [2, 10]: 952 ± 175 µg·h/mL
- Cmax [2, 10]: 31200 ± 11500 ng/mL
- MRT last [2, 10]: 25 ± 5 h
- Tmax [2, 10]: 19 ± 9 h
- half-life [2, 10]: 36 ± 8 h
- AUCextrap ([2]; non-coated capsule, rabbit plasma (Examples 2, 3, 4)): 46.71 ± 19.06%
- AUCextrap ([2]; standard suspension (2% w/v methylcellulose), rabbit plasma (Example 8)): 14 ± 9%
Compound: O=C(Nc1nc(=O)n(Cc2ccc(Cl)cc2)s1)c1ccc(Cl)cc1 [Compound 1, 4-Chloro-N-[2-[(4-chlorophenyl)methyl]-3-oxo-1,2,4-thiadiazol-5-yl]benzamide]
